Patent publication US20250144067A1, “PERSONALIZED STARVATION THERAPY FOR CANCER” (Faeth Therapeutics, Inc., priority 2021, published 2025)
Structures can show the parent of a compound that is named as a salt. Numbered stars: 1 amine (or outer) side, 2 acyl side, 3 side chain; on linkers, the order of the positions; unused ones are H or OH. Bridge positions count the residues as written; N and C are the ends. Square brackets hold non-standard residues; d marks the D form. Peptide text beside a SMILES is read from it. * marks the point of attachment. hTyr(3S-OH,4S-OH,3'-OSO3H) = N[C@H](C(=O)O)[C@H](O)[C@@H](O)c1ccc(O)c(OS(=O)(=O)O)c1; Orn(4R-OH,5R-OH) = O=C([C@H](C[C@@H](O)[C@@H](O)N[*:3])N[*:1])[*:2]; Pro(3S-OH,4S-Me) = C[C@H]1CN[C@H](C(=O)O)[C@H]1O; X1 = CCCCCOc1ccc(-c2cc(-c3ccc(C(=O)*)cc3)no2)cc1; Gln(3R-OH) = NC(=O)C[C@@H](O)[C@H](N)C(=O)O; Hyp = O=C(O)[C@@H]1C[C@@H](O)CN1

Tests used:
[1] = system: NCI-H292 lung cancer cells; assay: FDA drug screening, complete media vs cholesterol-free media with simvastatin (TABLE 2); format: cell-based, human; conditions: for Cholesterol-free media + simvastatin (0.04 μM) / Complete Media: NCI-H292 cells
[2] = system: NCI-H292 lung cancer cells; assay: FDA drug screening, complete media vs cholesterol-free media without statin (TABLE 1); format: cell-based, human
[3] = FDA drug library screen, cholesterol-free media with simvastatin 0.04 μM
[4] = complete media vs cholesterol-free media + simvastatin (0.04 μM), […]
[5] = NCI-H292 cells, cholesterol-free media without statin
[6] = cholesterol-free media with simvastatin 0.04 μM, cell growth value in FDA drug screen
[7] = complete media, cell growth value in FDA drug screen
[8] = complete media minus cholesterol-free media + simvastatin, >0 enhanced anti-cancer activity, about 0 neutral, <0 antagonist
[9] = Complete minus Cholesterol-free, greater than 0 enhanced anti-cancer activity, about 0 neutral, below 0 antagonists
[10] = NCI-H292 cells in cholesterol-free media without statin
[11] = NCI-H292 cells in complete media
[12] = drug in cholesterol-free media with simvastatin 0.04 μM
[13] = complete media vs cholesterol-free media + simvastatin (0.04 μM), >0 enhanced anti-cancer activity, about 0 neutral, <0 antagonist
[14] = cholesterol-free media with simvastatin 0.04 μM, FDA drug library screen (TABLE 2)
[15] = complete media, FDA drug library screen (TABLE 2)
[16] = complete media minus cholesterol-free media + simvastatin (0.04 μM), >0 enhanced anti-cancer activity, about 0 neutral, <0 antagonist
[17] = NCI-H292 cells, cholesterol-free media without statin, FDA drug library screen
[18] = NCI-H292 cells, complete media, FDA drug library screen
[19] = Complete minus Cholesterol-free, >0 enhanced anti-cancer activity, about 0 neutral, <0 antagonist

| Molecule | Cholesterol-free media + simvastatin (0.04 μM) [1, 6] | Complete Media [1, 7] | Difference [1, 8] | Difference [2, 9] | Cholesterol-free [2, 10] | Complete [2, 11] | Cholesterol-free [2, 17] | Complete [2, 18] | other results |
| --- | --- | --- | --- | --- | --- | --- | --- | --- | --- |
| Acetylspiramycin |  |  |  |  |  |  |  |  | Cholesterol-free media + simvastatin (0.04 μM) [1, 3]: 1.237; Complete Media ([1]; FDA drug library screen, complete media): 1.1; Difference [1, 4]: −0.14; Difference ([2]; Complete minus Cholesterol-free, […]): −0.20; Cholesterol-free [2, 5]: 1.42; Complete ([2]; NCI-H292 cells, complete media): 1.224 |
| Cc1ccc(S(=O)(=O)NC(=O)NN2CCCCCC2)cc1 [Tolazamide] | 1.047 | 1.177 | 0.13 | −0.50 | 1.412 | 0.9106 |  |  |  |
| Atracurium (besylate) |  |  |  | −0.49 | 1.419 | 0.9276 |  |  | Cholesterol-free media + simvastatin (0.04 μM) [1, 12]: 1.369; Difference [1, 13]: −0.26 |
| Nc1nc2[nH]cc(CCc3ccc(C(=O)N[C@@H](CCC(=O)O)C(=O)O)cc3)c2c(=O)[nH]1 [Pemetrexed (disodium hemipenta hydrate)] |  |  |  |  |  |  | 0.09445 | 0.1693 | Cholesterol-free media + simvastatin (0.04 μM) [1, 14]: 0.2685; Complete Media [1, 15]: 0.2746; Difference [1, 16]: 0.01; Difference ([2]; complete vs cholesterol-free media, >0 enhanced anti-cancer activity, about 0 neutral, <0 antagonist): 0.07 |
| CC(=O)NO [Acetohydroxamic acid] | 0.8799 | 0.8992 | 0.02 |  |  |  |  |  | Difference [2, 19]: −0.28; Cholesterol-free [2, 5]: 1.174; Complete ([2]; NCI-H292 cells, complete media): 0.8978 |
| C[C@H]1O[C@H](O[C@H]2[C@H](O)[C@@H](O)[C@@H](O[C@H]3[C@H](O)[C@@H](O)C(O)O[C@@H]3CO)O[C@@H]2CO)[C@H](O)[C@@H](O)[C@@H]1N[C@H]1C=C(CO)[C@@H](O)[C@H](O)[C@H]1O (stereo partly shown) [Acarbose] |  |  | 0.31 |  |  |  |  |  | Cholesterol-free media + simvastatin (0.04 μM) [1, 3]: 0.841; Difference ([2]; Complete minus Cholesterol-free, greater than 0 enhanced anti-cancer activity, about 0 neutral, below 0 antagonist): −0.13; Cholesterol-free ([2]; NCI-H292 cells, FDA drug library screen, cholesterol-free media without statin): 1.056; Complete ([2]; NCI-H292 cells, FDA drug library screen, complete media): 0.9216 |
| CCCC(=O)OCOC(=O)C1=C(C)NC(C)=C(C(=O)OC)C1c1cccc(Cl)c1Cl (stereo not shown) [Clevidipine] | 0.8061 | 0.9036 | 0.10 |  |  |  |  |  | Cholesterol-free [2, 5]: 1.292; Complete ([2]; NCI-H292 cells, complete media): 0.9289; Difference ([2]; complete vs cholesterol-free media, greater than 0 enhanced anti-cancer activity, about 0 neutral, below 0 antagonists): −0.36 |
| CCCCCOc1ccc(-c2cc(-c3ccc(C(=O)N[C@H]4C[C@@H](O)[C@@H](O)NC(=O)[C@@H]5[C@@H](O)[C@@H](C)CN5C(=O)[C@H]([C@H](O)CC(N)=O)NC(=O)[C@H]([C@H](O)[C@@H](O)c5ccc(O)c(OS(=O)(=O)O)c5)NC(=O)[C@@H]5C[C@@H](O)CN5C(=O)[C@H]([C@@H](C)O)NC4=O)cc3)no2)cc1 [Micafungin (sodium)] (X1-[Orn(4R-OH,5R-OH)]T[Hyp][hTyr(3S-OH,4S-OH,3'-OSO3H)][Gln(3R-OH)][Pro(3S-OH,4S-Me)]; lactam 1-C) |  |  |  |  |  |  | 1.036 | 1.188 | Cholesterol-free media + simvastatin (0.04 μM) ([1]; FDA library drug in cholesterol-free media with simvastatin 0.04 μM): 2.204; Complete Media ([1]; FDA library drug in complete media): 1.774; Difference [1, 4]: −0.43; Difference ([2]; complete vs cholesterol-free media, […]): 0.15 |
| CN1C(=O)COc2c(C(=O)NC3CN4CCC3CC4)cc(Cl)cc21 (stereo not shown) [Azasetron (hydrochloride)] | 0.9264 | 0.9552 | 0.03 |  |  |  | 0.8277 | 0.7612 | Difference [2, 19]: −0.07 |
| CC1=NN(c2ccc(C)c(C)c2)C(=O)/C1=N\Nc1cccc(-c2cccc(C(=O)O)c2)c1O [Eltrombopag (Olamine)] |  |  |  | −0.96 | 1.745 | 0.7856 |  |  | Cholesterol-free media + simvastatin (0.04 μM) [1, 14]: 1.098; Complete Media [1, 15]: 1.058; Difference [1, 16]: −0.04 |
| CC(=O)N[C@@H](CS)C(=O)O [Acetylcysteine] |  |  |  | −0.64 | 1.369 | 0.7324 |  |  | Cholesterol-free media + simvastatin (0.04 μM) [1, 12]: 1.145; Complete Media ([1]; drug in complete media): 0.9059; Difference [1, 13]: −0.24 |
| C=CC(=O)Nc1cc(Nc2nccc(-c3cn(C4CC4)c4ccccc34)n2)c(OC)cc1N(C)CCN(C)C [Almonertinib (hydrochloride)] | 0.6861 | 0.7198 | 0.03 |  |  |  | 0.4284 | 0.3618 | Difference [2, 19]: −0.07 |
